Test results: patent publication US6545033B1, “Fused 1-(2,6-dichloro-4-trifluoromethylphenyl)-pyrazoles, the synthesis thereof and the use thereof as pesticides” (3-Dimensional Pharmaceuticals, Inc., priority 1999, dated 2003)

Columns and labels:
[1] = target: Mouse Brain GABA Receptors; experiment: In vitro assay of binding to mouse brain GABA receptors (3H-EBOB displacement, mouse brain membranes); details: displacement of 5.2 nM 3H-EBOB, about 45 min at about 24° C.
Description: Mouse brains were obtained from carbon dioxide-asphyxiated Swiss-Webster mice, washed with phosphate-buffered saline, and used either fresh or after storage at −80° C. for up to 10 months. Unless specified, all preparation steps were performed at 0-4° C. For each preparation, 20 brains were suspended in about 40 mL of 0.32 M sucrose and homogenized for about 2 minutes, using a Tissumizer™ homogenizer equipped with a SDT-100EN probe (available from Tekmar-Dohrmann, Cincinnati, Ohio) running at 50% of its maximum speed. The extract was centrifuged for about 5 min at about 1000×g to pellet intact brain tissue. The supernatant was retained and the pellet washed with an additional 40 mL of 0.32 M sucrose and centrifuged at 1000×g for about 5 minutes. The 1000×g supernatants were combined and centrifuged at about 10,000×g for about 20 min to pellet membranes. The 10,000×g supernatant was discarded and the pellet was resuspended in about 20 mL of water containing 1 mM EDTA. The sample was dialyzed two times for about 3 hours each against about 3 L of water. The sample was then centrifuged at about 25,000×g for about 30 min to pellet the membranes. After centrifugation, the supernatant was discarded and the wet pellet recovered. The protein concentration of the pellet was determined by the Bio-Rad Protein Assay (available from Bio-Rad Laboratories, Hercules, Calif.) using bovine serum albumin as a standard. The membranes were aliquoted and stored at −80° C. for up to 6 months before use.
Mouse brain membranes were prepared as described above from dissected mouse brains. Test compounds were dissolved in dimethylsulfoxide (DMSO) at concentrations ranging from about 2 nM to about 100 mM. About 1 μL of a dissolved test compound was dispensed into a well of a 96-well polystyrene plate. About 100 μL of ice cold assay buffer (10 mM phosphate, 300 mM NaCl, pH 7.5) containing 5.2 nM 4′-Ethynyl-4-n-[2,3-^3H2]propylbicycloorthobenzoate (^3H-EBOB, 38 Ci/mmol, available from NEN Life Science Products, Boston, Mass.) was added to the well, followed by about 100 μL of ice cold assay buffer containing about 0.25-0.5 mg/mL mouse brain membranes. Control wells were prepared the same way except that the mouse brain membranes were omitted from the “negative” wells, and the test compounds were omitted from the “positive” wells. The samples were incubated for about 45 min at about 24° C. and then filtered on a 0.1% (w/v) polyethylenimine-soaked glass fiber Filtermat A (available from EG&G Wallac Inc., Gaithersburg, Md.) followed by four 100 mL rinses of cold assay buffer using a Harvester 96® cell harvester (available from Tomtec, Orange, Conn.). The filtermat was air dried and radioactivity bound to the filtermat was detected with either a 1450 MicroBeta® Trilux scintillation counter (available from EG&G Wallac Inc.) or a Topcount NXT™ scintillation counter (available from Packard Instrument Co., Meriden, Conn.) using standard methods.
Specific binding was considered to be the difference between total ^3H bound to the mouse brain membranes in the absence of any inhibitors and nonspecific ^3H bound to the mouse brain membranes upon the addition of 5 μM unlabeled EBOB. The average radioactivity contained in the “negative” wells was subtracted from each of the assay wells. […] Compounds that displaced ^3H-EBOB specifically bound to the mouse brain membranes were tested at 24-48 different final concentrations, varying from about 1 nM to about 125 μM, in order to determine the concentration at which 50% of the maximum inhibition due to the addition of that compound was observed (IC50). […]

[2] = tested on: cat fleas (Ctenocephalides felis), CO Fleas; experiment: In vivo cat flea contact assay, CO fleas; details: Ctenocephalides felis, topical; contact with treated filter disk in vial, about 24-30 hours; mM = concentration of the DMSO solution, about 1 μL applied; read-out: LD50 (mM), CO Fleas
Description: This example describes an in vivo assay to screen compounds for their ability to kill cat fleas via contact.
Test compounds were dissolved in dimethylsulfoxide (DMSO) at concentrations ranging from about 0.05 mM to about 100 mM. About 1 μL of dissolved test compound was dispensed onto a 6 mm (diameter) GF/C filter disk (filter material available from Whatman Inc., Clifton, N.J.) in the bottom of a 4 mL screw-top glass vial and allowed to air dry 24-48 hours. Positive control vials were prepared in the same manner except that no test compounds were dissolved in the DMSO. About 20 newly emerged cat fleas (Ctenocephalides felis) were sedated by refrigeration at 0-4° C. and transferred to each vial. Each vial was sealed with a thin, perforated Teflon™ septum secured by an open top screw cap and held vertically in the dark. After about 24-30 hours, the healthy, moribund, and dead cat fleas in each vial were counted. The percentage of dead cat fleas in each vial was then calculated using the formula M=100(D−(FC/100))/(F−(FC/100)), in which M is the percentage of dead cat fleas due to the addition of the test compound, D is the number of dead cat fleas in the test vial, F is the total number of cat fleas in the test vial, and C is the percentage of dead cat fleas in the control vials.

| SMILES | IC50 [1] [nM] | LC50 [2] [mM] |
| --- | --- | --- |
| FC(F)(F)c1cc(Cl)c(-n2cc3c(n2)CCC3(F)F)c(Cl)c1 [Compound 61, 2-[2,6-dichloro-4-(trifluoromethyl)phenyl]-4,4-difluoro-2,4,5,6-tetrahydrocyclopenta[c]pyrazole] | 1000 | 5 |
| FC1c2nn(-c3c(Cl)cc(C(F)(F)F)cc3Cl)cc2C(F)(F)C1F (stereo not drawn) [Compound 89, 2-[2,6-Dichloro-4-(trifluoromethyl)phenyl]-4,4,5,6-tetrafluoro-2,4,5,6-tetrahydrocyclopenta[c]pyrazole] | 180 | < 0.5 |
| FC(F)(F)c1cc(Cl)c(-n2cc3c(n2)CC(F)(F)C3(F)F)c(Cl)c1 [Compound 92, 2-[2,6-Dichloro-4-(trifluoromethyl)phenyl]-4,4,5,5-tetrafluoro-2,4,5,6-tetrahydrocyclopenta[c]pyrazole] | 60 | < 0.5 |
